{"source": "patent US7935525B2", "about": "“Inhibition of ATF2 activity to treat cancer” (Mount Sinai School of Medicine, priority 2001, dated 2011)", "key": {"[1]": {"system": "human melanocytes (FOM71)", "experiment": "Apoptosis by FACS (hypodiploid fraction)", "type": "cell-based", "conditions": "transient peptide expression; UV 75 J/m^2; 36 h", "method": "(§1) Treatment and apoptosis studies of stably transfected melanoma cells. Cells were exposed to UVC at 75 J/m^2 as previously described (Ronai, Z., et al., Oncogene 1998; 16:523-531). SB203580 (1-10 μM) (Calbiochem®, San Diego, Calif.), NCS (50-100 ng/ml) and mitomycin C (MMC) (0.2-1 μM) were used to treat melanoma cells. Flow cytometric analysis was performed on a FACSCalibur™ flow cytometer (Becton Dickinson) using CellQuest™ software as described previously (Nicoletti et al., J. Immunol. Methods 1991; 139:271-279). Cells were pelleted and resuspended in 0.5 ml of hypotonic buffer with 0.1% Triton X-100 containing PI (40 μg/ml) and DNase-free RNase A (1 mg/ml). Cells were incubated at 37° C. for 30 min and analyzed on a FACSCalibur™ flow cytometer (Becton Dickinson). The percentage of cells to the left of the diploid G0/1 peak, characteristic of hypodiploid cells that have lost DNA, was defined as the percentage of apoptotic cells. Analysis was performed with light scatter gating. Surface expression of Fas was determined using anti-Fas-PE antibody (PharMingen® CA) and flow cytometric analysis. Cell surface expression is measured as mean fluorescence intensity (MFI)."}, "[2]": {"system": "293T human kidney embryonic cells", "experiment": "Apoptosis by FACS (hypodiploid fraction)", "type": "cell-based", "conditions": "peptide-expressing 293T; normal growth conditions", "method": "[Worded in the source for another cell line; this cell line is reported under the same test.] as §1"}, "SW1 tumors": {"system": "SW1 tumors", "experiment": "cDNA microarray expression profiling of SW1 tumors", "type": "in vivo, mouse", "method": "cDNA microarray hybridizations. The 10 k mouse Gem 2 gene set (Incyte Genomics Inc, Palo Alto Calif.) was printed at the NCI on poly-L lysine coated glass using Biorobotics TASII arrayer (Cambridge, England). All protocols for the manufacturing and hybridization of microarrays are available at the NCI web site. Approximately 20 μg of total RNA was used in the reverse transcription reaction to directly label the probe with either Cy-5 dUTP or Cy-3 dUTP (Amersham®). Hybridizations were performed at 65° C. for 12-18 h in a hybridization volume of […]. The hybridized arrays were scanned using an Axon GenePix 4000® scanner (Union city, CA) and fluorescent data were collected using GenePix™ software.\nData Analysis. The axon image data for each microarray was uploaded to the NCI mAdb database for subsequent analysis using a variety of statistical web based tools. Gene clustering analysis was performed using the clustering algorithm and tree view software developed by Mike Eisen (Stanford, Calif.)."}, "Jun2-Luc": {"system": "Jun2-Luc", "experiment": "Jun2-Luc reporter in ATF2 null cells", "type": "cell-based"}, "Fas": {"system": "Fas", "experiment": "Cell surface expression of Fas by FACS", "type": "cell-based, human", "conditions": "peptide-expressing LU1205; control 122", "method": "as §1"}, "LU1205 tumor cells": {"system": "LU1205 tumor cells", "experiment": "Growth of transplanted LU1205 tumors in mice", "type": "in vivo", "method": "(§2) Tumor growth and metastasis evaluation in vivo. Cell lines established in culture to constitutively or inducibly express the peptide were injected into mice subcutaneously (S.C.). LU1205, FEMX and SW-1 cells that expressed control or peptide II were trypsinized, resuspended in PBS and injected SC (1×10^6) into 6-7 week old mice in the lower flank. When the tumor reached the size of about 50 mm^3, 5 μM of SB203580 was injected into four areas of the LU1205 tumors every 4 days during a 2-week period. For FEMX tumors UCN-01 (2.5 mg/kg) was fed by gavage twice a day, three times per week for a total of 2 weeks. Tumor growth was monitored every two days. SW-1 cells expressing peptide II under tet-inducible vector were injected SC (1×10^6). When tumors reached a size of about 50 mm^3, the mice received doxycycline in their drinking water ([…]) for a total of 2-4 weeks. At the end of the experiment, the tumors were excised and weighed. The lungs and other organs were subjected to histopathological examination to detect metastatic lesions."}, "[3]": {"system": "LU1205 melanoma cell line", "experiment": "Colony forming efficiency (CFE) resistance assay", "type": "cell-based, human", "method": "(§3) Radiation resistance. Cells (500 or 1500 per well) were plated in triplicates on 6 well plates, 24 h before treatment (Ronai et al., Oncogene 1998; 16:523-531). In all cases, plating efficiency was pre-determined so that number of cell plated was normalized respectively. Colonies (greater than 50 cells per clone) were stained with crystal violet solution (3% in 10% methanol and PBS), 14 days After treatment. % of CFE in each treatment group was calculated based on total CFE formed in the respective controls (100%)."}, "FEMX melanoma cell line": {"system": "FEMX melanoma cell line", "experiment": "Colony forming efficiency (CFE) resistance assay", "type": "cell-based, human", "method": "as §3"}, "[4]": {"system": "TRE-based promoter (c-Jun/AP1)", "experiment": "TRE-Luc reporter in c-Jun wild-type fibroblasts", "type": "cell-based", "method": "[Worded in the source for another cell line; this cell line is reported under the same test.] Transient transfection and transcriptional analysis. Mouse melanoma tumors grown in culture were transfected with control vector or peptide II expressing luciferase or β-galactosidase constructs (Bhoumik et al., Clin. Cancer Res. 2001; 7(2):331-42). Transient transfection of different reporter constructs (0.5 cg) with expression vectors and pCMV-Cgal (0.25 Cg) into 5×10^5 melanoma cells was performed using Lipofectamine™ (Life Technologies-BRL). Transfection of the Jun2-luciferase construct permitted us to monitor activity of ATF2 and c-Jun. Jun2-Luc and TRE-Luc constructs were previously described (van Dam H., et al., EMBO J. 1993; 12:479-487; and van Dam H., et al., EMBO J. 1995; 14:1798-1811). Luciferase activity was determined using the Luciferase assay system (Promega®, Madison, Wis.) and normalized on the basis of β-galactosidase (β-Gal) levels in transfected cells. Proteins were prepared for β-Gal and Luciferase analysis at the selected time points after transfection."}, "SW1 melanoma tumors": {"system": "SW1 melanoma tumors", "experiment": "Growth of SW1 tumors in FasL-deficient GLD mice", "type": "in vivo", "conditions": "compared with C3H", "method": "as §2"}, "[5]": {"system": "ATF2 transcriptional activity", "experiment": "Jun2 promoter reporter in Jun null fibroblasts", "type": "cell-based"}, "[6]": {"conditions": "tumors expressing peptide vs control vector"}}, "note": "“Also recorded” adds a separate entry of the source. No end group written: not given here."}
{"substance": "peptide II: N-terminal polypeptide fragment of ATF2, amino acid residues 50-100, expressed from pcDNA3 with HA-penetratin tag (EMTLKFGPARNDSVIVADQTPTPTRFLKNCEEVGLFNELASPFENEFKKAS; also: HA-penetratin tag, position not given here; UniProt P15336 50-100, looked up, fragment)", "values": [{"measurement": "sensitivity to undergo UV-induced apoptosis", "setting": "[1]", "value": "did not cause a significant increase"}, {"measurement": "increase in the degree of basal apoptosis", "setting": "[2]", "value": 5, "unit": "fold"}, {"measurement": "expression of ATF2", "setting": "SW1 tumors; four independent experiments", "value": "downregulated"}, {"measurement": "expression of ATF4 transcripts", "setting": "SW1 tumors; four independent experiments", "value": "increase"}, {"measurement": "transcripts of interleukin-1 beta, cullin 3, kinesin-associated protein 3, ATF3 and membrane metallo-endopeptidase", "setting": "SW1 tumors; tumors expressing peptide", "value": "up-regulated"}, {"measurement": "transcripts of tyrosine kinase 2, metallothionein 2 and ubiquitin-specific protease 18", "setting": "SW1 tumors; tumors expressing peptide", "value": "downregulated"}, {"measurement": "expression of Fas-associated genes", "setting": "SW1 tumors; [6]", "value": "Downregulation"}, {"measurement": "expression of growth-associated genes", "setting": "SW1 tumors; [6]", "value": "consistent downregulation"}, {"measurement": "expression of interferon-associated genes", "setting": "SW1 tumors; [6]", "value": "consistent downregulation"}, {"measurement": "expression of tumor necrosis factor-related genes (and other tumor antigens)", "setting": "SW1 tumors; [6]", "value": "strongly upregulated"}, {"measurement": "Jun2-Luc activities", "setting": "Jun2-Luc", "value": "did not affect"}, {"measurement": "cell surface expression of Fas, mean fluorescence intensity", "setting": "Fas", "value": 186}, {"measurement": "inhibition of tumor growth", "setting": "LU1205 tumor cells; combination: peptide-expressing LU1205 + SB203580", "value": "significant inhibition of tumor growth; also recorded: more effective"}, {"measurement": "tumor cell growth", "setting": "LU1205 tumor cells; single agent: inhibitor injected into tumor, or peptide expressed in tumor cells", "value": "grew much more slowly"}, {"measurement": "effects on the sensitivity to MMC (CFE)", "setting": "[3]; peptide-expressing LU1205, MMC", "value": "much less pronounced effects"}, {"measurement": "decrease in the % of CFE", "setting": "[3]; peptide-expressing LU1205 vs neo control, UV-C 9-36 J/m^2, colonies at 14 days", "value": "≤ 3", "unit": "fold"}, {"measurement": "sensitivity to NCS (CFE)", "setting": "[3]; peptide-expressing melanoma cells, NCS", "value": "did not reveal substantial differences"}, {"measurement": "decrease in the fraction of CFE", "setting": "FEMX melanoma cell line; peptide-expressing FEMX vs FEMX neo, 1 µM MMC, 14 days", "value": "≤ 10", "unit": "fold"}, {"measurement": "decrease in % of CFE", "setting": "FEMX melanoma cell line; peptide-expressing FEMX vs neo control, UV-C 9-36 J/m^2, colonies at 14 days", "value": "up to 10 fold"}, {"measurement": "increase in the activities of TRE-Luc", "setting": "[4]", "value": 200, "unit": "fold"}, {"measurement": "blocking growth of SW1 tumors", "setting": "SW1 melanoma tumors", "value": "as efficient in blocking growth"}, {"measurement": "transcriptional activity mediated from the Jun2 promoter", "setting": "[5]", "value": "marked inhibition"}]}
